Experimental findings from PubChem BioAssay (NCI) are described below.

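Protocol summary: plate cells (96-well), add compound at 5 concentrations, incubate 48 h, interpolate endpoints linearly. Definition used: TGI = concentration required for complete inhibition of growth.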 Bounds are passed on as bounds.

Test systems include ACHN renal; EKVX NSCLC; HCT-116 colon; HS 578T breast; KM12 colon; MDA-N; NCI-H460 lung; SK-MEL-5 melanoma; SR leukemia; U251 CNS; UACC-257 melanoma; UO-31 renal.
What all share (assay): DTP human tumour cell line panel, 48 h

Broadly, the TGI is the concentration at which net growth stops. Low values mean greater sensitivity of the cells, high ones lower sensitivity of the cells. Take `FC(F)(F)c1ccc2c(c1)nc(Cc1ccccc1)n2C[C@@H]1CCCN2CCCCC12` (some centres undefined): the total growth inhibition concentration (TGI) worked out at 26.5 µM with ACHN renal; 28.9 µM in the test with EKVX NSCLC; 27.9 µM with HCT-116 colon; 57 µM with HS 578T breast; 30.3 µM in the test on KM12 colon; 26.2 µM in the test with MDA-N. Also, the total growth inhibition concentration (TGI) is 31.9 µM in the test on NCI-H460 lung; 29.6 µM in the test on SK-MEL-5 melanoma; over 100 µM in the test with SR leukemia; 29.2 µM in the test on U251 CNS; 28.9 µM with UACC-257 melanoma; 0.744 µM in the test on UO-31 renal.
As for `COC(=O)C(NC(=O)CNC(=O)CSc1nnc(COc2ccc(Cl)cc2)n1-c1ccccc1)C(C)C` (centres undefined), the TGI with ACHN renal was 31.8 µM; in the test with EKVX NSCLC, over 100 µM; with HCT-116 colon, 31.4 µM; in the test on HS 578T breast it was 62.9 µM; in the test on KM12 colon it was 35.4 µM; with MDA-N it was 51.2 µM. Also, the TGI in the test with NCI-H460 lung is 36.2 µM; in the test on SK-MEL-5 melanoma, 30 µM; in the test on SR leukemia it was 52.3 µM; with U251 CNS, 35.5 µM; with UACC-257 melanoma, 34.6 µM; in the test on UO-31 renal, 33.3 µM.
With `N#Cc1c(=O)c2cc([N+](=O)[O-])ccc2n2c1[nH]c1ccccc12`, the TGI with ACHN renal is over 93.5 µM; with EKVX NSCLC it was over 100 µM; with HCT-116 colon, over 40.1 µM; with HS 578T breast, over 74.9 µM; in the test with KM12 colon, over 57.2 µM; in the test on MDA-N it was over 77.4 µM. Besides, the TGI was over 89.2 µM in the test with NCI-H460 lung; 28.3 µM in the test on SK-MEL-5 melanoma; 96.6 µM with SR leukemia; over 92.6 µM with U251 CNS; over 72 µM with UACC-257 melanoma; over 57.4 µM in the test on UO-31 renal.
On to `C=CCN1C(=O)/C(=C/c2ccc(C)cc2)N=C1SC/C=C/C`, for which the TGI in the test on ACHN renal, in the test on EKVX NSCLC, in the test with HCT-116 colon, in the test with HS 578T breast, with KM12 colon and in the test with MDA-N was over 100 µM each time. Also, the total growth inhibition concentration (TGI) with NCI-H460 lung is over 100 µM; with SK-MEL-5 melanoma it was 44.6 µM; in the test with SR leukemia, 42.4 µM; in the test with U251 CNS, 77.6 µM; in the test on UACC-257 melanoma, over 100 µM; in the test with UO-31 renal, over 100 µM.
`Clc1ccc(OCc2nnc3sc(-c4ccc(-c5ccc(Cl)cc5Cl)o4)nn23)c(Cl)c1`: the TGI in the test with ACHN renal is 45.8 µM; in the test with EKVX NSCLC, 34.5 µM; in the test with HCT-116 colon, 31.4 µM; in the test with HS 578T breast it was 54.5 µM; with KM12 colon, over 100 µM; in the test with MDA-N, 71.3 µM. In addition, the TGI in the test on NCI-H460 lung amounted to 55.2 µM; in the test on SK-MEL-5 melanoma, 44.4 µM; with SR leukemia it was 25.5 µM; in the test with U251 CNS, 37.5 µM; in the test on UACC-257 melanoma it was 38.2 µM; in the test on UO-31 renal, 44.4 µM.
Take `Oc1[nH]c2ccccc2c1N=NC1=NCCCCN1`: the TGI in the test on ACHN renal, in the test on EKVX NSCLC, in the test with HCT-116 colon, in the test on HS 578T breast, with KM12 colon and in the test on MDA-N was over 100 µM each time. Besides, the concentration for total growth inhibition (TGI) in the test on NCI-H460 lung, with SK-MEL-5 melanoma, in the test on SR leukemia, in the test with U251 CNS, in the test on UACC-257 melanoma and in the test on UO-31 renal was over 100 µM in each case.
In the case of `O=C1CC(Br)c2c(Cl)sc(Cl)c21` (centres undefined), the TGI is 24.6 µM with ACHN renal; 48.2 µM in the test with EKVX NSCLC; 16.9 µM with HCT-116 colon; 47 µM in the test with HS 578T breast; 20.2 µM in the test with KM12 colon; 12.2 µM in the test with MDA-N. In addition, the TGI with NCI-H460 lung stood at 34.8 µM; with SK-MEL-5 melanoma it was 41.9 µM; with SR leukemia it was 32.2 µM; in the test on U251 CNS it was 10.4 µM; in the test on UACC-257 melanoma it was 15 µM; in the test with UO-31 renal it was 15.7 µM.
`CC(=O)Oc1ccn2nc(C)c(Br)c2c1Br`: the total growth inhibition concentration (TGI) in the test with ACHN renal was 31.4 µM; with EKVX NSCLC it was over 58.5 µM; in the test with HCT-116 colon, over 58.7 µM; in the test on HS 578T breast, over 100 µM; in the test on KM12 colon, over 100 µM; in the test with MDA-N it was 32.6 µM. Moreover, the TGI in the test on NCI-H460 lung is 53.1 µM; in the test with SK-MEL-5 melanoma, 31.7 µM; with SR leukemia it was over 100 µM; in the test on U251 CNS, over 100 µM; in the test on UACC-257 melanoma, 32.2 µM; with UO-31 renal, over 29.6 µM.
For the molecule `Oc1ccc(-c2nc3cc(C(F)(F)F)ccc3n2CC2CCCN3CCCCC23)cc1` (centres undefined), the TGI stood at 28.3 µM with ACHN renal; 31 µM in the test with EKVX NSCLC; 29.3 µM with HCT-116 colon; 31.5 µM in the test on HS 578T breast; 29.3 µM with KM12 colon; 29.7 µM in the test on MDA-N. In addition, the total growth inhibition concentration (TGI) was found to be 28.3 µM in the test on NCI-H460 lung; 27.7 µM in the test with SK-MEL-5 melanoma; 35.8 µM in the test on SR leukemia; 28 µM in the test on U251 CNS; 30.3 µM in the test on UACC-257 melanoma; 25.1 µM with UO-31 renal.
With `CC1=C/C(=N/N2C(=O)/C(=C/c3ccc(Cl)cc3)N=C2c2ccccc2)CC(C)(C)C1`, the total growth inhibition concentration (TGI) with ACHN renal, with EKVX NSCLC, with HCT-116 colon, with HS 578T breast, with KM12 colon and in the test with MDA-N was over 100 µM each time. Further, the TGI in the test with NCI-H460 lung was over 100 µM; with SK-MEL-5 melanoma, over 100 µM; in the test on SR leukemia it was over 100 µM; in the test with U251 CNS it was 69.7 µM; in the test with UACC-257 melanoma, over 100 µM; in the test with UO-31 renal, over 100 µM.
With `COC(=O)NCCc1[nH]nc2c1C(=O)C=C(OC)C2=O`, the TGI is 37 µM with ACHN renal; 44.5 µM in the test with EKVX NSCLC; 32.6 µM with HCT-116 colon; 88.1 µM with HS 578T breast; 41.3 µM in the test on KM12 colon; 33.3 µM in the test on MDA-N. Also, the TGI in the test with NCI-H460 lung was over 100 µM; with SK-MEL-5 melanoma, 28.9 µM; in the test on SR leukemia, 36.6 µM; in the test on U251 CNS, 32 µM; in the test on UACC-257 melanoma, 28.3 µM; with UO-31 renal, 50.1 µM.
Consider `O=[N+]([O-])CC(SCc1ccccc1)c1ccc2c(c1)OCO2` (centres undefined), for which the TGI was 28.3 µM with ACHN renal; 39.5 µM in the test with EKVX NSCLC; 4.46 µM in the test on HCT-116 colon; 18.2 µM in the test on HS 578T breast; 19.1 µM with KM12 colon; 9.63 µM in the test with MDA-N. Further, the concentration for total growth inhibition (TGI) in the test with NCI-H460 lung worked out at 37.9 µM; in the test on SK-MEL-5 melanoma, 25 µM; in the test on SR leukemia it was 8.51 µM; in the test on U251 CNS, 18.7 µM; in the test with UACC-257 melanoma it was 16 µM; with UO-31 renal, 22.2 µM.
